pIC50: −log10 of the molar value.
Columns and labels:
in vitro = conditions: human, liver microsomes
physchem = conditions: 1-octanol/phosphate buffered saline, pH 7.4
cells = conditions: Homo sapiens, Th17, 96 h
[1] = Intrinsic permeability of compound from apical to basolateral side in human Caco2 cells; type: ADME, cell-based; conditions: Caco-2
[2] = Apparent permeability across apical to basolateral side in human Caco-2 cells; type: ADME, cell-based
[3] = molecular target: Voltage-gated inwardly rectifying potassium channel KCNH2 (Homo sapiens, UniProt Q12809)
[4] = Plasma protein binding in mouse assessed as unbound fraction by equilibrium dialysis; type: ADME, cell-free
[5] = Apparent permeability across basolateral to apical side in human Caco-2 cells; type: ADME, cell-based
[6] = Plasma protein binding in dog assessed as unbound fraction by equilibrium dialysis; type: ADME, cell-free, Canis lupus familiaris
[7] = Plasma protein binding in rat assessed as unbound fraction by equilibrium dialysis; type: ADME, cell-free
[8] = Oral bioavailability in Han Wistar rat at 50 mg/kg using crystaline form of sample; type: ADME, organism-based; conditions: in vivo
[9] = Fraction absorbed in Han Wistar rat at 1 mg/kg, po using amorphous form of sample; type: ADME, organism-based; conditions: in vivo, read-out: Fabs
MDR1 [10] = test: Apparent permeability across basolateral to apical side in dog MDCK-MDR1 cells; type: ADME, cell-based, Canis lupus familiaris
[11] = Half life in Han Wistar rat at 0.5 mg/kg, iv; type: ADME, organism-based; conditions: in vivo
[12] = Volume of distribution at steady state in Beagle dog at 1 mg/kg, iv; type: ADME, organism-based, Canis lupus familiaris; conditions: in vivo, read-out: Vdss
[13] = Total plasma clearance in C57BL/6 mouse at 1 mg/kg, iv; type: ADME, organism-based
Mus musculus [14] = species on record: Mus musculus; test: animal or person; conditions: C57BL/6NCrl, sc, 168 h, read-out: INH
[15] = Fraction absorbed in C57BL/6 mouse at 2 mg/kg, po using amorphous form of sample; type: ADME, organism-based; conditions: in vivo, read-out: Fabs
[16] = Volume of distribution at steady state in Han Wistar rat at 0.5 mg/kg, iv; type: ADME, organism-based; conditions: in vivo, read-out: Vdss
[17] = Fraction absorbed in Han Wistar rat at 50 mg/kg, po using EtOH form of sample; type: ADME, organism-based; conditions: in vivo, read-out: Fabs
[18] = Oral bioavailability in Beagle dog at 3 mg/kg using amorphous form of sample; type: ADME, organism-based, Canis lupus familiaris; conditions: in vivo
[19] = Renal clearance in Han Wistar rat at 0.5 mg/kg, iv; type: ADME, organism-based, Kidney; conditions: in vivo
[20] = Biliary clearance in Han Wistar rat at 1 mg/kg, iv; type: ADME, organism-based, Bile; conditions: in vivo
[21] = Half life in C57BL/6 mouse at 1 mg/kg, iv; type: ADME, organism-based; conditions: in vivo
[22] = Metabolic stability in mouse hepatocytes assessed as intrinsic clearance measured per 10^6 cells; type: ADME, cell-based, Hepatocyte; conditions: read-out: CLH
[23] = Half life in Beagle dog at 1 mg/kg, iv; type: ADME, organism-based, Canis lupus familiaris; conditions: in vivo
Mus musculus [24] = species on record: Mus musculus; test: animal or person; conditions: C57BL/6NCrl, sc, 168 h, read-out: INH; remark: listed apart in the source
[25] = Total plasma clearance in Han Wistar rat at 1 mg/kg, iv; type: ADME, organism-based
MDR1 [26] = test: Apparent permeability across apical to basolateral side in dog MDCK-MDR1 cells; type: ADME, cell-based, Canis lupus familiaris
[27] = Oral bioavailability in Han Wistar rat at 50 mg/kg using EtOH form of sample; type: ADME, organism-based; conditions: in vivo
[28] = Volume of distribution at steady state in C57BL/6 mouse at 1 mg/kg, iv; type: ADME, organism-based; conditions: in vivo, read-out: Vdss
[29] = Oral bioavailability in Beagle dog at 10 mg/kg using crystaline form of sample; type: ADME, organism-based, Canis lupus familiaris; conditions: in vivo
[30] = Oral bioavailability in Han Wistar rat at 1 mg/kg using amorphous form of sample; type: ADME, organism-based; conditions: in vivo
[31] = Metabolic stability in dog hepatocytes assessed as intrinsic clearance measured per 10^6 cells; type: ADME, cell-based, Canis lupus familiaris, Hepatocyte; conditions: read-out: CLH
[32] = Oral bioavailability in C57BL/6 mouse at 2 mg/kg using amorphous form of sample; type: ADME, organism-based; conditions: in vivo
[33] = Fraction absorbed in Beagle dog at 10 mg/kg, po using crystaline form of sample; type: ADME, organism-based, Canis lupus familiaris; conditions: in vivo, read-out: Fabs
[34] = Total plasma clearance in Beagle dog at 1 mg/kg, iv; type: ADME, organism-based, Canis lupus familiaris
[35] = Fraction absorbed in Han Wistar rat at 50 mg/kg, po using crystaline form of sample; type: ADME, organism-based; conditions: in vivo, read-out: Fabs
[36] = Fraction absorbed in Beagle dog at 3 mg/kg, po using amorphous form of sample; type: ADME, organism-based, Canis lupus familiaris; conditions: in vivo, read-out: Fabs

Chain of Voltage-gated inwardly rectifying potassium channel KCNH2 (Q12809 whole entry): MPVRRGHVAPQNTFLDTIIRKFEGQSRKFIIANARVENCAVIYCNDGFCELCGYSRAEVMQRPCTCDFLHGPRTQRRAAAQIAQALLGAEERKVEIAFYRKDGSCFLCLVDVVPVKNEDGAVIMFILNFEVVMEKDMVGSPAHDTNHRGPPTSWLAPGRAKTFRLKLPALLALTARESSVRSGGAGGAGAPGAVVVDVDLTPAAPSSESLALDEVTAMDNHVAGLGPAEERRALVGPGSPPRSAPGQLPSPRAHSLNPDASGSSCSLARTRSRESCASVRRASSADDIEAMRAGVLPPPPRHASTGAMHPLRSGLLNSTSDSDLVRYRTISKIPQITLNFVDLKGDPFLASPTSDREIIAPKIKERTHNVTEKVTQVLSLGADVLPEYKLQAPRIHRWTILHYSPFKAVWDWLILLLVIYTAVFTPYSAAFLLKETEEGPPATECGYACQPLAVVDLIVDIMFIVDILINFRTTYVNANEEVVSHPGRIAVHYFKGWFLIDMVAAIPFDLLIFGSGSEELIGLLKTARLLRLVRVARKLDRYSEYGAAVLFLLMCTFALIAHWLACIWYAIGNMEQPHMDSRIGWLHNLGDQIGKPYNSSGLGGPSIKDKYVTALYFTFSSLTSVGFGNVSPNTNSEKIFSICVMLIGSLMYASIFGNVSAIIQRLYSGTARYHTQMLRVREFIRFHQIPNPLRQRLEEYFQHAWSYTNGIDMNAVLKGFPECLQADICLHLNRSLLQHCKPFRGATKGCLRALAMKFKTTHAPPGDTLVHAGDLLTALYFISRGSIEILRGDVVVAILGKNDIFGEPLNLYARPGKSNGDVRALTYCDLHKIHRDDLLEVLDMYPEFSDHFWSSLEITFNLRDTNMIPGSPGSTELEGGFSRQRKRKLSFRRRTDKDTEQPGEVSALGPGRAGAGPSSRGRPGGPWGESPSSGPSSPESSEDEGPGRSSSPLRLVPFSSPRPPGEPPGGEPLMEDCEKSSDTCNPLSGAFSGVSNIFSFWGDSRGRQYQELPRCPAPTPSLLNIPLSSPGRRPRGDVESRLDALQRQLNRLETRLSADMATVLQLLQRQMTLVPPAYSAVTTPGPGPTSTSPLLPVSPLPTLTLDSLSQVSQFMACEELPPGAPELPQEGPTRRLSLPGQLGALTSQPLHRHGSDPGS

## CCS(=O)(=O)c1ccc(C(Cc2nnco2)C(=O)Nc2ccc(C(O)(C(F)(F)F)C(F)(F)F)cc2)cc1 (stereo not given)
In vitro
  microsomal CLint: < 3 µL/min/mg
physchem
  logD: 2.9
cells
  pIC50: 6.65

## CS(=O)(=O)c1ccc2c(c1)CN(C(=O)C1CCO1)C2C(=O)Nc1ccc(C(O)(C(F)(F)F)C(F)(F)F)cc1 (stereo not given)
In vitro
  microsomal CLint: < 3 µL/min/mg
physchem
  logD: 2.2

## CCS(=O)(=O)c1ccc(C(NC(C)=O)C(=O)Nc2ccc(C(O)(C(F)(F)F)C(F)(F)F)cc2)nc1 (stereo not given)
In vitro
  microsomal CLint: < 3 µL/min/mg
[1]
  Pm: 7.7
physchem
  logD: 2.5
cells
  pIC50: 7.20
[2]
  Papp A→B: 0.7 ×10⁻⁶ cm/s

## CCS(=O)(=O)c1ccc2c(c1)CN(C(=O)CCC#N)C2C(=O)Nc1ccc(C(O)(C(F)(F)F)C(F)(F)F)cc1 (stereo not given)
In vitro
  microsomal CLint: < 3 µL/min/mg
physchem
  logD: 2.5

## CCS(=O)(=O)c1ccc2c(c1)CN(C=O)C2C(=O)Nc1ccc(C(O)(C(F)(F)F)C(F)(F)F)cc1 (stereo not given)
In vitro
  microsomal CLint: < 3 µL/min/mg
physchem
  logD: 2.9

## CS(=O)(=O)c1ccc2c(c1)CN(C(=O)CCC#N)C2C(=O)Nc1ccc(C(O)(C(F)(F)F)C(F)(F)F)cc1 (stereo not given)
In vitro
  microsomal CLint: < 3 µL/min/mg
physchem
  logD: 2.3

## CCS(=O)(=O)c1ccc(C(NC(=O)CC2CC2)C(=O)Nc2ccc(C(O)(C(F)(F)F)C(F)(F)F)cc2)nc1 (stereo not given)
In vitro
  microsomal CLint: 22 µL/min/mg
[1]
  Pm: 14.2
physchem
  logD: 3.5
cells
  pIC50: 7.70
[2]
  Papp A→B: 1.1 ×10⁻⁶ cm/s
[3]
  pIC50: 4.47

## CC(=O)N1Cc2cc(S(C)(=O)=O)ccc2[C@H]1C(=O)Nc1ccc(C(O)(C(F)(F)F)C(F)(F)F)cc1
In vitro
  microsomal CLint: < 3 µL/min/mg
physchem
  logD: 2.4

## CCS(=O)(=O)c1ccc(C(NC(=O)Cc2ccccc2)C(=O)Nc2ccc(C(O)(C(F)(F)F)C(F)(F)F)cc2)nc1 (stereo not given)
In vitro
  microsomal CLint: 21 µL/min/mg
[1]
  Pm: 29
physchem
  logD: 4
[2]
  Papp A→B: 0.9 ×10⁻⁶ cm/s
[3]
  pIC50: 4.80

## CCS(=O)(=O)c1ccc(C(Cn2cccn2)C(=O)Nc2ccc(C(O)(C(F)(F)F)C(F)(F)F)cc2)cc1 (stereo not given)
In vitro
  microsomal CLint: 16 µL/min/mg
[1]
  Pm: 44
physchem
  logD: > 4
cells
  pIC50: 6.44
[2]
  Papp A→B: 2.6 ×10⁻⁶ cm/s
[3]
  pIC50: 5.62

## CCS(=O)(=O)c1ccc(C(CC(=O)NC)C(=O)Nc2ccc(C(O)(C(F)(F)F)C(F)(F)F)cc2)cc1 (stereo not given)
In vitro
  microsomal CLint: < 3 µL/min/mg
[1]
  Pm: 8
physchem
  logD: 3.1
[2]
  Papp A→B: 0.4 ×10⁻⁶ cm/s

## CS(=O)(=O)c1ccc2c(c1)CNC2C(=O)Nc1ccc(C(O)(C(F)(F)F)C(F)(F)F)cc1 (stereo not given)
In vitro
  microsomal CLint: < 3 µL/min/mg
physchem
  logD: 3

## CNS(=O)(=O)c1ccc2c(c1)CN(C(C)=O)C2C(=O)Nc1ccc(C(O)(C(F)(F)F)C(F)(F)F)cc1 (stereo not given)
In vitro
  microsomal CLint: < 3 µL/min/mg
physchem
  logD: 2.8

## COCCS(=O)(=O)c1ccc2c(c1)CN(C(C)=O)C2C(=O)Nc1ccc(C(O)(C(F)(F)F)C(F)(F)F)cc1 (stereo not given)
In vitro
  microsomal CLint: 11 µL/min/mg
physchem
  logD: 2.5

## CCS(=O)(=O)c1ccc([C@@H](CC(=O)NC)C(=O)Nc2ccc(C(O)(C(F)(F)F)C(F)(F)F)cc2)cc1
In vitro
  microsomal CLint: < 3 µL/min/mg
[1]
  Pm: 3.2
physchem
  logD: 3.2
[2]
  Papp A→B: 0.3 ×10⁻⁶ cm/s
[3]
  pIC50: < 4.40

## NCCC(=O)N1Cc2cc(S(=O)(=O)CC3CC3)ccc2C1C(=O)Nc1ccc(C(O)(C(F)(F)F)C(F)(F)F)cc1 (stereo not given)
In vitro
  microsomal CLint: < 3 µL/min/mg
physchem
  logD: 1.1

## CCS(=O)(=O)c1ccc(C(NC(=O)OC)C(=O)Nc2ccc(C(O)(C(F)(F)F)C(F)(F)F)cc2)nc1 (stereo not given)
In vitro
  microsomal CLint: < 3 µL/min/mg
physchem
  logD: 2.9
[3]
  pIC50: 5.03

## CC(=O)N1Cc2cc(S(C)(=O)=O)ccc2[C@@H]1C(=O)Nc1ccc(C(O)(C(F)(F)F)C(F)(F)F)cc1
[4]
  fraction unbound: 0.21
[5]
  Papp B→A: 16 ×10⁻⁶ cm/s
[6]
  fraction unbound: 0.12
[7]
  fraction unbound: 0.23
In vitro
  microsomal CLint: < 3 µL/min/mg
[8]
  bioavailability: 5%
[9]
  Fa: 41%
MDR1 [10]
  Papp B→A: 16 ×10⁻⁶ cm/s
[11]
  half-life: 3.3 h
[12]
  Vd: 1.9 L/kg
physchem
  logD: 2.4
[13]
  clearance: 10.5 mL/min/kg
Mus musculus [14]
  inhibition in vivo at 50 mg/kg: 65%
[15]
  Fa: 71%
[16]
  Vd: 2.5 L/kg
[17]
  Fa: 42%
[18]
  bioavailability: 97%
[19]
  CL renal: 2.9 mL/min/kg
[20]
  CL: 0.4 mL/min/kg
[21]
  half-life: 2.7 h
[22]
  hepatocyte CLint: 2.3 µL/min/1e6 cells
[23]
  half-life: 16.6 h
Mus musculus [24]
  inhibition in vivo at 15 mg/kg: 67%
[25]
  clearance: 12.4 mL/min/kg
MDR1 [26]
  Papp A→B: 0.9 ×10⁻⁶ cm/s
[27]
  bioavailability: 35%
[28]
  Vd: 1.3 L/kg
[29]
  bioavailability: 50%
[30]
  bioavailability: 34%
[31]
  hepatocyte CLint: < 1 µL/min/1e6 cells
[32]
  bioavailability: 67%
[33]
  Fa: 52%
[34]
  clearance: 1.9 mL/min/kg
[35]
  Fa: 6%
[36]
  Fa: 99%

From ChEMBL document CHEMBL4831524, “AZD0284, a Potent, Selective, and Orally Bioavailable Inverse Agonist of Retinoic Acid Receptor-Related Orphan Receptor C2” (J Med Chem, 2021)
